Consider one molecule from article PMC5597618, “Identification and characterization of the novel reversible and selective cathepsin X inhibitors” (Scientific Reports, 2017).

Test [1] addresses T1, Cathepsin B (exopeptidase a.) (Homo sapiens, UniProt P07858).
T1 construct: made in house; host or cells: E. coli
In words: Ki against cathepsin B exopeptidase activity (Abz-GIVRAK(Dnp)-OH). It is filed as biochemical. The note with it: SigmaPlot at 3 different substrate concentrations; pH 5.0. As for the experimental part: Recombinant or native human cathepsins were used: recombinant cathepsin X and cathepsin S were expressed in Pichia pastoris, recombinant cathepsins B and L in E. coli, [43], native cathepsin H was isolated from human liver. Assay buffers for determining activities of cathepsins X and L consisted of 100 mM sodium acetate buffer, pH 5.5, for cathepsins H, S and B (endopeptidase activity) of 100 mM phosphate buffer pH 6.8, 6.5 and 6.0, respectively and for cathepsin B (exopeptidase activity) of 60 mM acetate buffer pH 5.0. Each assay buffer contained 0.01% Triton X-100 to prevent false positive inhibition due to aggregation of compounds[45], 5 mM cysteine, 1.5 mM EDTA and 0.1% PEG 8000. Enzymes were activated at 37 °C for 5 min before the assays.
Ki was determined by measuring the initial rate of hydrolysis at three different substrate concentrations (Supplementary Table S2) in the presence of seven different compound concentrations (0, 20, 40, 60, 80, 100 and 200 μM). 90 μL of the activated cathepsin was added to a black 96-well plate with 5 μL of the substrate and 5 μL of the compound. Formation of the fluorescent degradation product was monitored continuously at 460 nm ± 10 nm with excitation at 380 nm ± 20 nm (for AMC substrates) and, as noted above for Abz substrates, at 37 °C. All measurements were performed twice and in duplicate. The resulting data were analyzed by non-linear regression using the software SigmaPlot®, Enzyme Kinetics Module™ 1.3 and were fitted to the equation v = v max [S]/([S] (1 + [I]/αK i ) + K m (1 + [I]/K i )) (first group of compounds). For Ki determination against cathepsin X for the compounds from the second group, progress curves in the absence and presence of each putative inhibitor were fitted to the reaction mechanism presented in Fig. 3b. In this case the resulting data as well as reactivation curves were fitted to the equation system presented in Fig. 3c using ENZO application. For calculation of kinetic parameters from reaction progress curves the fluorescence coefficient for conversion of arbitrary fluorescence units to concentration was first determined. The fluorescence coefficient was calculated as the slope from the plot of initial substrate concentration vs. height of the plateau of the progress curve after complete hydrolysis of increasing concentrations of substrate, using linear regression.
Supplementary Table S2. Substrates used for the various cathepsins and their concentrations […]
Enzyme Substrate Concentration (µM) Reference/Company cathepsin X Abz-FEK(Dnp)-OH 3.25, 6.5, 13 Puzer et al.3 cathepsin B - endopept. Z-RR-AMC 60, 180, 360 Bachem cathepsin B - exopept. Abz-GIVRAK(Dnp)-OH 1, 3, 6 Bachem cathepsin S Z-VVR-AMC 0.5, 1, 1.5 Biomol cathepsin L Z-FR-AMC 0.5, 1, 4 Bachem cathepsin H Z-R-AMC 20, 80, 160 Biomol […]

The target in test [2] is cathepsin X (Homo sapiens, UniProt Q9UBR2). In words: Labeling of cathepsin X with activity-based probe DCG-04 in PC-3 cell lysate. It counts as biochemical. More on the design: endogenous in cells; host or cells: PC-3. The note with it: 10 µM inhibitor. How it is done: Evaluation of cellular uptake and retention of compound 22: sample preparation and LC- […]
PC-3 cells were treated for 1 hour with compound 22 (50 µM). Cells were washed twice with cold PBS, trypsinized, washed once more and centrifuged. A pellet of cells was resuspended in 200 µL of PBS (or in 200 µL of PBS containing 5µM inhibitor for standard addition) and transferred to 1.5 mL Eppendorf vials prefilled with 0.1 mm and 0.5 mm glass beads (NextAdvance, USA). All cell samples were then homogenized with a BulletBlender (NextAdvance, USA) for 5 min at speed setting »6«. […]
(2.30;50), (2.50;50), (2.6;5). […] ESI Jetstream parameters were set as follows: drying gas temperature 275 °C, drying gas flow 5 L/min, nebulizer 45 psi, sheath gas temperature 320 °C, sheath gas flow 11 L/min, capillary entrance voltage 4000 V and nozzle voltage 1000 V. Quadrupoles Q1 and Q3 were set at the widest resolution (2.5 amu) and multiple reaction monitoring (MRM) mass transitions used for the quantification of recorded traces are presented in Supplementary Table S4. […]
PC-3 cell lysate was diluted in cathepsin X assay buffer (1 mg/ml protein concentration). […] After blocking with 5% skimmed milk powder in TBS with 0.05% Tween 20, membrane was incubated with streptavidin-HRP (1:5000; Jackson ImmunoResearch) for 1 hour and proteins were detected with […]

Chain of cathepsin X (Q9UBR2 62-303): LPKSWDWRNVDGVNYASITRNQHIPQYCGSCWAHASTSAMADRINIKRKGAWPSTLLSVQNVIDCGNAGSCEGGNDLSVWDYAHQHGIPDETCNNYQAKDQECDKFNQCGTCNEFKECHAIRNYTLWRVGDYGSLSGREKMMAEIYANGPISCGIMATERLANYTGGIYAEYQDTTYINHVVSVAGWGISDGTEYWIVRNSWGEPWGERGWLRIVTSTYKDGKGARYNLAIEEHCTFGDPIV

In general, Ki refers to the equilibrium dissociation constant of an inhibitor or competing ligand from its target. A higher Ki goes with weaker binding. Molecule `CC(C)n1cnnc1SCC(=O)c1ccc2c(c1)OCCO2` [Compound 22, 1-(2,3-Dihydrobenzo[b][1,4]dioxin-6-yl)-2-((4-isopropyl-4H-1,2,4-triazol-3-yl)thio)ethan-1-one] displayed a Ki in test [1] of 306 ± 38.1 µM. The “delay of cathepsin X labeling by DCG-04” value in test [2] was “approximately 20 minutes”.
